# Assay results reported in US20040028749A1, “Treating inflammation and associated complications” (priority 2000, published 2004).
# B1: catalase: hydrogen peroxide scavenger (protein, UniProt P00432 2-527, looked up)
# Catalase: ADNRDPASDQMKHWKEQRAAQKPDVLTTGGGNPVGDKLNSLTVGPRGPLLVQDVVFTDEMAHFDRERIPERVVHAKGAGAFGYFEVTHDITRYSKAKVFEHIGKRTPIAVRFSTVAGESGSADTVRDPRGFAVKFYTEDGNWDLVGNNTPIFFIRDALLFPSFIHSQKRNPQTHLKDPDMVWDFWSLRPESLHQVSFLFSDRGIPDGHRHMNGYGSHTFKLVNANGEAVYCKFHYKTDQGIKNLSVEDAARLAHEDPDYGLRDLFNAIATGNYPSWTLYIQVMTFSEAEIFPFNPFDLTKVWPHGDYPLIPVGKLVLNRNPVNYFAEVEQLAFDPSNMPPGIEPSPDKMLQGRLFAYPDTHRHRLGPNYLQIPVNCPYRARVANYQRDGPMCMMDNQGGAPNYYPNSFSAPEHQPSALEHRTHFSGDVQRFNSANDDNVTQVRTFYLKVLNEEQRKRLCENIAGHLKDAQLFIQKKAVKNFSDVHPEYGSRIQALLDKYNEEKPKNAVHTYVQHGSHLSAREKANL
# Key:
# [1] = system: Human RBCs; assay: OSCN^−/OCN^− effects on intact RBC glutathione, enzymes and hemolysis; type: cell-based; settings: lysates and membranes of RBCs exposed to 100 μM OSCN^−/OCN^−; 10 mM DTT
# Description: After 30 minutes, cells were pelleted by centrifugation at 2000×g for 3 minutes and washed three times in ice-cold HEPES/Hanks' (H & H) buffer. […] RBC lysates and membranes were then prepared by hypotonic lysis and assayed for glutathione and glyceraldehyde-3-phosphate dehydrogenase (GAPDH), glutathione-S-transferase (GST), and lactate dehydrogenase (LDH) activity as described by Beutler (see Beutler (1974) Red Cell Metabolism A Manual of Biochemical Methods Grune and Stratton, Inc., Orlando, Fla.) and for ATPase activity as described below. Hemolysates were incubated for an additional 15 minute with or without 10 mM DTT and reassayed for GAPDH, GST, and ATPases.
# Intracellular levels of the SH-containing oxidant scavenger glutathione were assayed. In addition, the activities of three enzymes, GST, GAPDH, and membrane ATPases, which are known to be vulnerable to SH-oxidation-based inactivation, as well as LDH which is not prone to such inactivation were assayed.
# [2] = intranasal 1 mM SCN^−, 1 mM Br^− or 100 μM NO2^−
# Description: The following experiment is performed to determine if by directly manipulating the relative substrate halide composition of the intrabronchial luminal contents, the severity of the resulting EPO-mediated oxidative damage and so the severity of the induced pathologies can be influenced. […] From the day before initiation of aerosol ovalbumin challenge, four groups of guinea pigs (n=15) are subjected to intranasal instillation of 300 μL of PBS (100 mM Cl^−), PBS+1 mM NaSCN, PBS+1 mM NaBr, or PBS+100 μmol NaNO2 in each nostril. Intranasal instillation is performed every 6 hours until the time of analysis. The numbers of animals in each group is determined from power calculations assuming unpaired design. A group size of 15 animals per group allows for detecting a change in Br—Y, PC50, and histologic severity index amongst the OVA-challenged animal of ≧125% of the S.D. of the experimental groups with 90% power, P<0.05.
# As for Section VI, Example 10, pulmonary functions, and chloro-, bromo-, and NO2—Y in BAL and whole lung homogenates are determined. […] Multiple linear regression is used to determine factors responsible for changes in PC50 or histologic severity of airway damage. PC50 or histologic severity is treated as a continuous variable and correlated Br—Y and NO2—Y levels in BAL and whole lung by multiple regression.
# [3] = system: RBC ATPases; assay: Oxidant inactivation of RBC membrane ATPase activity; type: biochemical, human; settings: even at 1 mM
# From the text: Membrane preparations rather than intact RBC were used to allow all oxidants equal access to intra- and extracellular membrane components.
# [4] = system: S. mansoni schistosomules; assay: Toxicity of hypohalous acids for schistosomules; type: cell-based; settings: for toxicity for the parasite relative to host cells: schistosomules vs mammalian cells; for LD50 for schistosomules: two hours exposure
# Description: (§1) To determine how generation of HOSCN subserves the physiological function of EOs, i.e., to destroy tissue-invasive parasites, the following experiment was performed. Reagent grade HOSCN was generated by (i) adding human EPO (10 μg/mL) and 1 mM NaSCN to Hank's buffer, (ii) adding five 100 μM boluses of H2O2 at 3 minute intervals, (iii) adding 20 μg/mL of catalase to consume unreacted H2O2, and (iv) removing protein by filtration through a PM-10 membrane (Amicon). HOSCN was then assayed by TNB titration. Mammalian cells used included cultured human and porcine aortic endothelium, rat cardiac myocytes, P338D1 murine lymphoma, and RBCs. Freshly transformed S. mansoni schistosomules (obtained from James Kazura at Case Western University) were also used. Both were exposed to reagent HOSCN for two hours, then assayed for cytotoxicity by (i) ^51Cr release, (ii) hemolysis (mammalian cells) or (iii) light microscopy observations of granularity, lack of motion, and methylene blue dye exclusion (somules). Results in Table 1 indicate that HOSCN killed both schistosomules and host cells. Whereas HOCl and HOBr were equally toxic for host cells and somules, HOSCN was 10-15 times more toxic for the parasite.
# [5] = system: mammalian cells; assay: Cytotoxicity of hypohalous acids for mammalian cells (51Cr release, hemolysis); type: cell-based; settings: two hours exposure
# Description: as §1
# [6] = system: human EOs; assay: EO-mediated nitration and bromination of HPA; type: cell-based; settings: PMA-activated EOs; for EO-mediated nitration of HPA: 50 μM NO2^−, 100 μM Br^−
# Description: (§2) These studies were performed in the presence of CO2 (5% gas phase) and […] the medium (4.2 mM) to mimic a biologically relevant situation. Leukocytes ([…]) were incubated at 37° C. under 95% air, 5% CO2, in Medium A (Ca^2+/Mg^2+/phenol-free HBSS; Life Technologies, (Gaithersburg, Md.) supplemented with 100 μM NaBr, 50 μM L-arginine, and 200 μM DTPA, pH 7.4 final) in the absence or presence of NaNO2 (0<50 μM, as indicated in the figure legends). […] Cells were activated by addition of PMA (200 nM) and incubated for either 1 hour or the indicated time interval. In some experiments, EOs were activated in the presence of an exogenous NO source by addition of PAPA NONOate (Alexis) for 1 minute following PMA addition. Rates of NO flux were determined spectrophotometrically by reaction of NO with oxyhemoglobin as described in Baek et al. (Baek et al. (1993) J Biol Chem 268:21120) under the identical conditions used for experiments, but in the absence of any added cells. To maintain a final pH of 7.4 during experiments with PAPA NONOate, incubations were performed in Medium B (Medium A containing only 100 mM NaCl and supplemented with 20 mM sodium phosphate, pH 7.4). […] In some cases, leukocyte reaction mixtures also contained one of the following: 1 mM NaN3, 10 mM 3-aminotriazole (Atz), 300 nM catalase (Cat), 300 nM heat-inactivated catalase (hiCat), 10 μg/ml superoxide dismutase (SOD), 1 mM methionine (Met), or 1 mM N^α-acetyl lysine.
# (§3) NO2—Y production by isolated EOs was quantified by reversed phase HPLC with photodiode array detection (see Wu et al. (1999) J Biol Chem 274:25933). […] The nitrated (NO2-HPA; 3-(4-hydroxy-3-nitrophenyl)propanoic acid), brominated (Br-HPA; 3-(3-bromo-4-hydroxyphenyl)propanoic acid), and chlorinated (Cl-HPA; 3-(3-chloro-4-hydroxyphenyl)propanoic acid) products of the tyrosine analog, HPA, were routinely quantified by reversed phase HPLC with electrochemical (coulometric) detection on an ESA CoulArray HPLC (Cambridge, Mass.) equipped with UV detector and electrochemical cells (eight channels) (Wu et al. (1999) J Biol Chem 274:25933). […] Authentic standards of NO2-HPA, Br-HPA, and Cl-HPA were prepared by reaction of HPA with a molar equivalent of ONOO^−, HOBr, or HOCl, respectively.
# Use of this low molecular mass surrogate for a protein-bound tyrosine residue permitted more facile quantification of the relative capacity of EOs to promote aromatic nitration and halogenation reactions of phenolic targets.
# [7] = system: human EOs; assay: NO2—Y formation by activated human EOs; type: cell-based; settings: agonist 100 nM, exogenous NO2^−
# Description: as §2, with “HBSS;” for “HBSS; Life Technologies, (Gaithersburg, Md.) supplemented with 100 μM NaBr, 50 μM L-arginine, and 200 μM DTPA, pH 7.4 final) in the absence or presence of NaNO2 (0<50 μM, as indicated in the figure legends).”, “NO2—Y production by isolated EOs was quantified by reversed phase HPLC with photodiode array detection (see Wu et al. (1999) J Biol Chem 274:25933). […]” for “In some cases, leukocyte reaction mixtures also contained one of the following: 1 mM NaN3, 10 mM 3-aminotriazole (Atz), 300 nM catalase (Cat), 300 nM heat-inactivated catalase (hiCat), 10 μg/ml superoxide dismutase (SOD), 1 mM methionine (Met), or 1 mM N^α-acetyl lysine.”
# [8] = system: LPO, or EPO; settings: 100 μM SCN^−, LPO or EPO present
# [9] = system: EPO or LPO; settings: O2^.− generating system
# Description: NO decay was determined in phosphate buffer in the absence versus presence of plasma levels of halides using an NO-selective electrode. NO-saturated buffer was added to a continuously stirred reaction mixture.
# [10] = biological target: T1, EPO (Homo sapiens, UniProt P11678); settings: physiologic concentrations (20-120 μM) of SCN^−; 100 μM Br, 100 mM Cl^−
# T1 sequence (P11678 251-715 limits assumed): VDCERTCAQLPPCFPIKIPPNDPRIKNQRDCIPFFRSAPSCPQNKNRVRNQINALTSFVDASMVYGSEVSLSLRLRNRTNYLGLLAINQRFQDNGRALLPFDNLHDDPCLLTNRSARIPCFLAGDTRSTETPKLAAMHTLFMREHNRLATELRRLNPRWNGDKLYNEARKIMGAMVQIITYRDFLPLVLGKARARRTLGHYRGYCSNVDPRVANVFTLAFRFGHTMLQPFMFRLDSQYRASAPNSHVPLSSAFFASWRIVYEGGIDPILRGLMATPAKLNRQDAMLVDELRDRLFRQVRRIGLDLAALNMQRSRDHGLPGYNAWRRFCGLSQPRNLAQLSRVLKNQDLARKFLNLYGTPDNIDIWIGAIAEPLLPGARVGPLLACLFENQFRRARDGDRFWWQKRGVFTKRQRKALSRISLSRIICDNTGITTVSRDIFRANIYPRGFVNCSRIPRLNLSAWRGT
# T1 sequence (P11678 140-250 limits assumed): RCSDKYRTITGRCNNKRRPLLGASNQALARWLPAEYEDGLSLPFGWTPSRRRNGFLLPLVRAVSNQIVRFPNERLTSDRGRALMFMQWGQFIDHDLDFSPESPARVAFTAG
# From the text: All other reagents were obtained from Sigma Chemical Co. (St. Louis, Mo.).
# [11] = SCN^− supplementation
# Description: Four experimental groups, each comprised of 15 guinea pigs are utilized for these studies.
# The first group is the control and receives KCl in lieu of KClO4 to control for the effect of potassium. […] Perchlorate treatments are initiated three days prior to OVA aerosol challenges and maintained throughout the experimental period until the time of analysis. Specimens are analyzed according to the protocol described. The experimental groups are compared using an appropriate statistical method (i.e., parametric or non-parametric) based upon ANOVA.
# All four groups are then pooled to determine correlations between (i) methacholine challenge PC50 and (ii) BAL and whole lung Br—Y and NO2—Y levels. Correlations were also determined between (i) histologic severity and (ii) BAL and/or whole lung Br—Y and NO2—Y levels.
# [12] = system: EPO
# Description: The EPO/NO2^−/H2O2 system generates reactive nitrogen species that generates bioactive eicosanoids, e.g. hydroxyeicosatetraenoic acids (HETEs) from unilamellar vesicles comprised of 1-palmitoyl-2-arachidonyl-sn-glycero-3-phosphocholine (PAPC). […] Reaction mixtures consisting of 0.8 mg lipid/mL PAPC, 60 nM EPO, 100 μM NO2^−, 100 ng/mL glucose oxidase, 100 μg/mL glucose were incubated for 2 hours at 37° C. HETEs were analyzed by lipid extraction and HPLC with on-line electrospray ionization tandem mass spectometry (LC/MS/MS).
# [13] = wild type mouse
# Description: Mice were sensitized by intranasal instillation of Aspergillus and aeroallogen challenged one month later with aerosol saline (control) or Aspergillus (antigen challenged). At 2 days before the one-month aeroallogen challenge, one group of antigen-challenged animals received i.p. 0.5 mL of 0.1% KSCN and 0.1% KSCN in drinking water. Three days after the aeroallogen challenge, both groups were challenged with intranasal inoculums of Candida and 6 hours later subjected to BAL and the content of supernatant protein Br—Y determined using stable isotope dilution GC-MS.
# [14] = biological target: MPO (Homo sapiens, UniProt P05164); settings: pre-incubation of the enzyme solution
# Chain of MPO (P05164 279-745 limits assumed): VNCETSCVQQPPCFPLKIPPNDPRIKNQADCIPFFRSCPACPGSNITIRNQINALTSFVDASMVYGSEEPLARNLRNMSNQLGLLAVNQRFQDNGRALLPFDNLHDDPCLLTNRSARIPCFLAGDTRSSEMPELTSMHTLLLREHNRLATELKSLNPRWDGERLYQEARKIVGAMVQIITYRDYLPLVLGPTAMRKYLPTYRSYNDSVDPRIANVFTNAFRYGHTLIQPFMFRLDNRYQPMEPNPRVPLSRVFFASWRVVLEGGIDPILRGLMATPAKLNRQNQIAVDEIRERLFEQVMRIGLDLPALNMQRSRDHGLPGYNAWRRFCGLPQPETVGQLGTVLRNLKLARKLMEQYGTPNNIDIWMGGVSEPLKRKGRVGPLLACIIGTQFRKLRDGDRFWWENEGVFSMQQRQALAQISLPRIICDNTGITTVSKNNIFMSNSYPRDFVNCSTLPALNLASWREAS
# Chain of MPO (P05164 165-273 limits assumed): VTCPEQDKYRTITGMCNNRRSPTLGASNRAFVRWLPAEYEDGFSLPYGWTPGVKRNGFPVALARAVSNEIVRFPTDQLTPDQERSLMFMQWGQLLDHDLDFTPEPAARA
# Description: Initial experiments utilized an NO-selective electrode (ISO-NO Mark II, World Precision Instruments, Sarasota, Fla.) to determine whether NO serves as a general substrate for peroxidases. Reactions were performed under conditions where peroxidases were present in catalytic amounts Experiments were performed at 25° C. by immersing the electrode in 10 mL of 0.2 M sodium phosphate buffer, pH 7.0, under air. NO was added to continuously stirred buffer solution from an NO-saturated stock and the rise and fall in NO concentration was continuously monitored using a chart recorder. To determine the effect of H202 and peroxidases on NO levels during steady state catalysis, 10 μl H202 (100 μM final) and 50 μL enzyme (150 nM final) were added to the reaction mixture. Where indicated, solutions were supplemented with NaCl (100 mM) and/or a cell-free O2^.−-generating system comprised of lumazine (0.4 mm) and bovine milk xanthine oxidase (XO, Boehringer Mannheim).
# To examine the potential physiological significance of these observations, the effect of additional substrates on peroxidase-catalyzed consumption of NO was examined. MPO was initially used as a model peroxidase because of its abundance at sites of leukocyte recruitment and activation during inflammation and its well-known use of the abundant halide Cl^− as substrate.
# [15] = biological target: T1, EPO
# Description: To determine the relative time courses of HOSCN and cyanate generation, H2O2 was added to a reaction mixture containing phosphate buffered saline (PBS) with 1 mM KSCN, pH 7.4, and 0.4 μM EPO. H2O2 was added by continuous infusion at 50 μM/minute for 20 minutes to simulate the continuous generation of H2O2 by the respiratory burst of an activated EO. An aliquot was (i) removed from the reaction mixture prior to and at various time intervals after initiating addition of H2O2, (ii) supplemented with 40 μg/mL catalase to consume unreacted H2O2, and (iii) placed on ice until subsequent assay of oxidants and cyanate as described.
# H2O2 was continuously infused at 50 μM/minute for 20 minutes, simulating the continuous generation of H2O2 by the respiratory burst of an activated EO. Aliquots were removed from the reaction mixture at one-minute intervals and catalase was added to destroy excess unreacted H2O2 prior to assay of TNB-reactive substances and cyanate.
# [16] = system: activated EOs; assay: NO2-HPA formation by activated EOs with exogenous NO donor; type: cell-based, human
# Description: as §2, §3
# [17] = system: activated human EOs; settings: 5 mM azide
# Description: Purified EOs were washed, suspended at 4×10^6/mL in a modified Hank's balanced salt solution composed of 5.3 mM KCl, 138 mM NaCl, 0.4 mM potassium phosphate, 5.3 mM sodium phosphate, 5.5 mM D-glucose, 1.3 mM CaCl2, and 0.5 mM MgCl2, pH 7.4 supplemented with 1 mM KSCN. EOs were divided into three groups that were supplemented with (i) nothing (control), (ii)1 μg/mL phorbol 12-myristate 13-acetate (PMA), or (iii) 1 μg/mL PMA and 5 mM azide. EOs were then incubated at 37° C. for 60 minutes in capless 5 mL round-bottom tubes. The tubes were vortexed every 15 minutes to aid oxygenation. After the incubation, the samples were centrifuged for 10 minutes, 1000×g at 4° C. The supernatants were placed in Microcon concentrators (Amicon, Mass.) with membranes of 3000 Dalton molecular weight cut off and centrifuged for 30 minutes, 13,000×g at 4° C. to remove degranulated proteins. The filtrates were assayed for HOSCN and cyanate quantities.
# As a gauge of the potential physiologic relevance of the above findings—all made with a purified reagent system—intact, activated human EOs were examined to determine whether HOSCN and OCN^− are generated. […]
# [18] = high rates of NO flux (>2 μM/min)
# [19] = low rates of NO flux (<2 μM/min)
molecule,measurement,setting,value
"O[C@H](CS)[C@H](O)CS (racemic) [DTT, dithiothreitol]","GST, GAPDH and ATPase activity after OSCN^−/OCN^− exposure",[1],completely restored the activities of all three enzymes
"Br [Br^−, bromide]",levels of Br—Y and NO2—Y and severity of resulting asthma,[2],increase
"OO [H2O2, hydrogen peroxide]",inactivation of RBC ATPases,[3],failed to inactivate ATPases
"OBr [HOBr, hypobromous acid]",toxicity for the parasite relative to host cells,[4],equally toxic
same,LD50 for schistosomules,[4],10 µM
same,LD50 for mammalian cells,[5],10 to 33 µM
"OCl [HOCI, hypochlorous acid]",toxicity for the parasite relative to host cells,[4],equally toxic
same,LD50 for schistosomules,[4],10 µM
same,LD50 for mammalian cells,[5],10 to 33 µM
N#CSO [HOSCN],toxicity for the parasite relative to host cells,[4],10-15 times
same,LD50 for schistosomules,[4],20 µM
same,LD50 for mammalian cells,[5],200 to 300 µM
"CC(=O)N[C@@H](CCCCN)C(=O)O [N-acetyl lysine, N^α-acetyl lysine]",cell-dependent bromination of HPA,[6],lack of inhibition
CSCC[C@H](NC=O)C(=O)N[C@@H](CC(C)C)C(=O)N[C@@H](Cc1ccccc1)C(=O)O [N-formyl-methionyl-leucyl-phenylalanine],"NO2—Y levels produced, less than with PMA-stimulated EOs",[7],8 fold
"O=NO [NO2^−, nitrite]",levels of Br—Y and NO2—Y and severity of resulting asthma,[2],increase
"N#CS [SCN^−, thiocyanate]",mean lung Br—Y/Y,"NaSCN i.p. and 0.2% in drinking water, OVA challenge",0.93 mmol/mol
same,rise of Br—Y/Y after OVA challenge,dietary supplementation with SCN^− prior to OVA challenge,completely abrogated
same,relaxation of preconstricted bronchial rings in response to NO,[8],do so when high physiologic concentrations of SCN^− are added
same,peroxidase-mediated NO consumption,[9],attenuation/inhibition of peroxidase-mediated NO consumption
same,levels of Br—Y and NO2—Y and severity of resulting asthma,[2],ameliorates
same,EPO production of HOBr,[10],blocked
same,"Br—Y and NO2—Y levels, functional and histologic pulmonary pathology",[11],will reduce
same,HETE generation from PAPC vesicles by EPO/SCN^−/H2O2 system,[12]; 100 μM SCN^−,no detectable HETEs
same,HETE generation from PAPC vesicles by EPO/NO2^−/H2O2 system,[12]; physiological concentration of SCN^−,severely attenuated
same,BrY reduced from w.t. antigen-challenged,[13]; SCN supplemented,BrY 86% reduced
same,Lavage fluid bromotyrosine,"[13]; antigen challenge, 0.1% KSCN i.p. and in drinking water",196 ± 103 μmol Br—Y/μmol Y
"[N-]=[N+]=[N-].[Na+] [azide, sodium azide]",NO consumption by MPO,[14],prevented
same,generation of both HOSCN and OCN^−,[15]; azide 1 mM,nearly completely blocked
same,HOSCN levels at plateau stage of progression curve,[15]; azide added during H2O2 infusion,abrupt collapse of HOSCN levels
same,NO2-HPA formation,[16]; [18],increasingly less sensitive to inhibition
same,NO2-HPA formation,[16]; [19],inhibited
same,PMA-stimulated generation of HOSCN and OCN^−,[17],severely attenuated
same,EO-mediated nitration of HPA,[6],inhibited
CSCC[C@H](N)C(=O)O [methionine],EO-mediated nitration of HPA,[6],inability of the HOBr scavenger methionine to affect nitration
B1,NO2-HPA formation,[16]; [18],increasingly less sensitive to inhibition
same,NO2-HPA formation,[16]; [19],significantly attenuated
same,EO-mediated nitration of HPA,[6],inhibited
